In US20260258084A1, “New Peptides as Selective IL-23 Receptor Antagonists” (Sanofi, priority 2022, published 2026):
Converted amounts (≈) assume the structure as drawn. Read-outs that look alike come from different tables or passages of the source. Starred links: 1 amine or outer side, 2 acyl side, 3 side chain; linkers in the order of their positions; H or OH if unused. Positions of bridges follow the written chain, without caps; N, C: chain ends. Non-standard residues stand in square brackets, D forms with d. Residues, ends and D or L forms follow the SMILES beside them. *: point of attachment. Trp(7-Me) = Cc1cccc2c(C[C@H](N)C(=O)O)c[nH]c12; X1 = O=C(CCCCN[*:3])N[C@@H](CS[*:2])C(=O)[*:1]; 2Nal = N[C@@H](Cc1ccc2ccccc2c1)C(=O)O; αMeL = CC(C)C[C@](C)(N)C(=O)O; Thp = NC1(C(=O)O)CCOCC1; Me2NCH2CH2 = CN(C)CC*; Aib = CC(C)(N)C(=O)O; Ava = NCCCCC(=O)O; Sar = CNCC(=O)O

Experiment: Solubility testing of peptides at different pH
Type: physicochemical
Settings: target concentration 1 mg/ml, 2 hours agitation
Procedure, shortened: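 Four buffers were used: 50 mM HCl pH 1.2 and 50 mM phosphate at pH 6.5, 7.4 and 9.0, each receiving dried-down compound at a 1 mg/mL target. After 2 h gentle shaking and 0.45 μm filtration, UV peak areas were compared with a DMSO standard curve of known concentration, allowing for extinction coefficients.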

[1] = 50 mM HCl buffer, 50 mM HCl pH 1.2, read-out: Solubility Buffer pH 1.2
[2] = 50 mM phosphate buffer pH 6.5, read-out: Solubility Buffer pH 6.5
[3] = 50 mM phosphate buffer pH 7.4, read-out: Solubility Buffer pH 7.4
[4] = 50 mM phosphate buffer pH 9.0, read-out: Solubility Buffer pH 9.0

| Compound | solubility at 2 h [1] | solubility at 2 h [2] | solubility at 2 h [3] | solubility at 2 h [4] |
| --- | --- | --- | --- | --- |
| CC(=O)NCCCC[C@@H]1NC(=O)[C@H](Cc2c[nH]c3c(C)cccc23)NC(=O)[C@H]([C@@H](C)O)NC(=O)[C@H](CC(N)=O)NC(=O)[C@@H]2CSSC[C@H](NC1=O)C(=O)N[C@@H](Cc1ccc(OCCN(C)C)cc1)C(=O)N[C@@H](Cc1ccc3ccccc3c1)C(=O)NC1(CCOCC1)C(=O)N[C@H](C(=O)N[C@@H](CC(N)=O)C(=O)N[C@@H](Cc1c[nH]cn1)C(=O)N(C)CC(N)=O)CCC(=O)NCCCCC(=O)N2 [compound 46] ([Ava]CNT[Trp(7-Me)]K(Ac)CY(Me2NCH2CH2)[2Nal][Thp]ENH[Sar]-NH2; disulfide 2-7; lactam N-11) | ≥ 1080 µg/mL | ≥ 1060 µg/mL | ≥ 1060 µg/mL | ≥ 1030 µg/mL |
| CC(=O)N[C@H]1CCCCNC(=O)[C@@H]2CSSC[C@H](NC(=O)[C@H](CCC(N)=O)NC(=O)[C@H](Cc3c[nH]c4ccccc34)NC1=O)C(=O)N[C@@H](Cc1ccc(OCCN(C)C)cc1)C(=O)N[C@@H](Cc1ccc3ccccc3c1)C(=O)NC(C)(C)C(=O)N[C@H](C(=O)N[C@@H](C)C(=O)NCC(N)=O)CCC(=O)NCCCCC(=O)N2 [compound 32] (Ac-KWQCY(Me2NCH2CH2)[2Nal][Aib]EAG-NH2; linker 1-4-8 via X1) | 740 µg/mL (≈ 474 µM) | ≥ 880 µg/mL | ≥ 870 µg/mL | 170 µg/mL (≈ 109 µM) |
| CC(C)C[C@]1(C)NC(=O)[C@H](Cc2ccc3ccccc3c2)NC(=O)[C@H](Cc2ccc(OCCN(C)C)cc2)NC(=O)[C@@H]2CSSC[C@H](NC(=O)CCCCNC(=O)CC[C@@H](C(=O)N[C@@H](CC(N)=O)C(=O)N[C@@H](CC(N)=O)C(N)=O)NC1=O)C(=O)N[C@@H](CC(N)=O)C(=O)N[C@@H]([C@@H](C)O)C(=O)N[C@@H](Cc1c[nH]c3ccccc13)C(=O)N[C@@H](CCC(N)=O)C(=O)N2 [compound 27] ([Ava]CNTWQCY(Me2NCH2CH2)[2Nal][αMeL]ENN-NH2; disulfide 2-7; lactam N-11) | ≥ 890 µg/mL | ≥ 870 µg/mL | 810 µg/mL (≈ 463 µM) | 270 µg/mL (≈ 154 µM) |
